In patent publication US4698352A, “4-oxo-1,4-dihydronicotinic acid derivatives, salts thereof, and antibacterial agents containing the same” (Toyama Chemical Co., Ltd., priority 1982, dated 1987):
Converted amounts (≈) assume the structure as drawn. Where two headings read alike, the source gives them in different places.

What was measured:
Assay in all cases: Antibacterial activity (MIC), agar dilution
Type in all cases: cell-based
[1] = test system: E. coli NIHJ JC-2; settings: Escherichia coli, NIHJJC2, 20 h, E. coli NIHJ JC-2; 10^6 cells per ml; 37° C., 20 hours; read-out: MIC
Description: (§1) The amount of bacteria inoculated was 10^4 cells per plate (10^6 cells per ml).

[2] = test system: E. coli TK-111; settings: Escherichia coli, TK111, 20 h, E. coli TK-111; 10^6 cells per ml; 37° C., 20 hours; read-out: MIC
Description: as §1

[3] = test system: Ent. cloacae IID977; settings: Enterobacter cloacae, IID977, 20 h, Ent. cloacae IID977; 10^6 cells per ml; 37° C., 20 hours; read-out: MIC
Description: as §1

[4] = test system: Kl. pneumoniae Y-41; settings: Klebsiella pneumoniae, Y41, 10^6 cells per ml, 37° C., 20 hours, read-out: MIC
Description: as §1

[5] = test system: Kl. pneumoniae Y-50; settings: Klebsiella pneumoniae, Y50, 20 h, 10^6 cells per ml, 37° C., read-out: MIC
Description: as §1

[6] = test system: Pro. mirabilis T-111; settings: Proteus mirabilis, T111, 20 h, 10^6 cells per ml, 37° C.
Description: as §1

[7] = test system: Pro. morganii T-216; settings: Morganella morganii, 37° C.
Description: as §1

[8] = test system: Pro. vulgaris GN3027; settings: Proteus vulgaris, GN3027, 20 h, Pro. vulgaris GN3027; 10^6 cells per ml; 37° C., 20 hours; read-out: MIC
Description: as §1

[9] = test system: Ps. aeruginosa IFO3445; settings: Pseudomonas aeruginosa; Ps. aeruginosa IFO3445; 10^6 cells per ml; 37° C., 20 hours; read-out: MIC
Description: as §1

[10] = test system: Ps. aeruginosa S-68; settings: Pseudomonas aeruginosa
Description: as §1

[11] = test system: St. aureus FDA209P; settings: Staphylococcus aureus, FDA209P, 20 h, St. aureus FDA209P; 10^6 cells per ml; 37° C., 20 hours; read-out: MIC
Description: as §1

[12] = test system: E. coli TK-3*; settings: Escherichia coli, 20 h, E. coli TK-3, penicillinase-producing; 10^6 cells per ml; read-out: MIC
Description: as §1
(§2) * Penicillinase-producing bacteria

[13] = test system: Kl. pneumoniae Y-4*; settings: Klebsiella pneumoniae, 20 h, Kl. pneumoniae Y-4, penicillinase-producing; 10^6 cells per ml; read-out: MIC
Description: as §1, §2

[14] = test system: Ps. aeruginosa GN3379*; settings: Pseudomonas aeruginosa, 20 h; Ps. aeruginosa GN3379, penicillinase-producing; 10^6 cells per ml; read-out: MIC
Description: as §1, §2

[15] = test system: St. aureus F-137*; settings: Staphylococcus aureus, 20 h, St. aureus F-137, penicillinase-producing; 10^6 cells per ml; read-out: MIC
Description: as §1, §2

[16] = test system: E. coli GN5482**; settings: Escherichia coli, 20 h; E. coli GN5482, cephalospolinase-producing; 10^6 cells per ml; read-out: MIC
Description: as §1
(§3) ** Cephalospolinase-producing bacteria

[17] = test system: Pro. vulgaris GN76**; settings: Proteus vulgaris
Description: as §1, §3

[18] = test system: Ps. aeruginosa GN918**; settings: Pseudomonas aeruginosa, Ps. aeruginosa GN918, cephalospolinase-producing, 10^6 cells per ml
Description: as §1, §3

[19] = test system: Aci. antitratus A-6; settings: 20 h, Aci. antitratus A-6; 10^6 cells per ml; 37° C., 20 hours; read-out: MIC
Description: as §1

[20] = S68, Ps. aeruginosa S-68, 10^6 cells per ml, 37° C., 20 hours, read-out: MIC
[21] = 20 h, Pro. vulgaris GN76, cephalospolinase-producing, 10^6 cells per ml, read-out: MIC
[22] = T216, 10^6 cells per ml, 20 hours, read-out: MIC

| Compound | MIC [1] | MIC [2] | MIC [3] | MIC [4] | MIC [5] | MIC [6] | MIC [8] | MIC [9] | MIC [10, 20] | MIC [11] | MIC [12] | MIC [13] | MIC [14] | MIC [15] | MIC [16] | MIC [17, 21] | MIC [7, 22] | MIC ([18]; GN918, 20 h) | other results |
| --- | --- | --- | --- | --- | --- | --- | --- | --- | --- | --- | --- | --- | --- | --- | --- | --- | --- | --- | --- |
| Cc1nc2cc(-c3cc(=O)c(C(=O)O)cn3-c3ccc(O)cc3)ccc2s1 | 0.39 µg/mL (≈ 1.03 µM) | 0.1 µg/mL (≈ 0.264 µM) | 1.56 µg/mL (≈ 4.12 µM) | 3.13 µg/mL (≈ 8.27 µM) | 0.78 µg/mL (≈ 2.06 µM) | 3.13 µg/mL (≈ 8.27 µM) | 0.39 µg/mL (≈ 1.03 µM) | 12.5 µg/mL (≈ 33 µM) | 6.25 µg/mL (≈ 16.5 µM) | 0.39 µg/mL (≈ 1.03 µM) | 0.78 µg/mL (≈ 2.06 µM) | 3.13 µg/mL (≈ 8.27 µM) | 6.25 µg/mL (≈ 16.5 µM) | 0.78 µg/mL (≈ 2.06 µM) | ≤ 0.05 µg/mL | 1.56 µg/mL (≈ 4.12 µM) |  |  | MIC ([7]; T216, 20 h, 10^6 cells per ml): 3.13 µg/mL (≈ 8.27 µM); MIC ([18]; 20 h, read-out: MIC): 1.56 µg/mL (≈ 4.12 µM) |
| COCOC(=O)c1cn(-c2ccc(O)cc2)c(-c2ccc(N(C)C)cc2)cc1=O | 0.39 µg/mL (≈ 0.989 µM) | 0.2 µg/mL (≈ 0.507 µM) | 1.56 µg/mL (≈ 3.96 µM) | 3.13 µg/mL (≈ 7.94 µM) | 0.78 µg/mL (≈ 1.98 µM) | 3.13 µg/mL (≈ 7.94 µM) | 0.39 µg/mL (≈ 0.989 µM) | 6.25 µg/mL (≈ 15.8 µM) |  | 0.39 µg/mL (≈ 0.989 µM) | 1.56 µg/mL (≈ 3.96 µM) | 3.13 µg/mL (≈ 7.94 µM) | 6.25 µg/mL (≈ 15.8 µM) | 0.39 µg/mL (≈ 0.989 µM) | ≤ 0.05 µg/mL |  | 1.56 µg/mL (≈ 3.96 µM) | 3.13 µg/mL (≈ 7.94 µM) | MIC ([10]; S68, 20 h): 3.13 µg/mL (≈ 7.94 µM); MIC ([17]; GN76, 20 h): 3.13 µg/mL (≈ 7.94 µM) |
| O=C(O)c1cn(-c2ccc(O)cc2)c(-c2ccc3occc3c2)cc1=O | 0.39 µg/mL (≈ 1.12 µM) | 0.2 µg/mL (≈ 0.576 µM) | 0.78 µg/mL (≈ 2.25 µM) | 1.56 µg/mL (≈ 4.49 µM) | 0.39 µg/mL (≈ 1.12 µM) | 3.13 µg/mL (≈ 9.01 µM) | ≤ 0.05 µg/mL | 12.5 µg/mL (≈ 36 µM) | 6.25 µg/mL (≈ 18 µM) | 0.2 µg/mL (≈ 0.576 µM) |  | 3.13 µg/mL (≈ 9.01 µM) | 6.25 µg/mL (≈ 18 µM) | 0.39 µg/mL (≈ 1.12 µM) | ≤ 0.05 µg/mL | 0.78 µg/mL (≈ 2.25 µM) | 0.78 µg/mL (≈ 2.25 µM) | 1.56 µg/mL (≈ 4.49 µM) | MIC [19]: 0.78 µg/mL (≈ 2.25 µM) |
